How the values were obtained:
HuM2e antibody 23K12 = type: binding, human
[1] = system: anti-M2 human monoclonal antibody Z3G1; type: binding

Substance | Signal (peptides that bind to 23K21 and 8I10) (HuM2e antibody 23K12) | Signal (peptides that show specific binding to Z3G1) [1] | Signal (peptides that bind to Z3G1) [1]
311 (SLLTEVGCLLTEV; epitope peptide) [compound 311] | 1859 | 1924 | 
312 (TLLTEVETPIRNEWGCRCNDSSD; epitope peptide) [compound 312] | 1855 | 2510 | 
314 (SLLTEVGSLLCEV; epitope peptide) [compound 314] | 1834 | 2392 | 
316 (MSLLTEVGCSLLTEV; epitope peptide) [compound 316] | 1809 |  | 2650
317 (MSLLTEVGMSLCTEV; epitope peptide) [compound 317] | 1804 |  | 2895
318 (SLLTEVETPIRNEWGCRCKDSSD; epitope peptide) [compound 318] | 1802 |  | 2549
320 (SLLTEVGSLLTEV; epitope peptide) [compound 320] | 1794 | 2530 | 
321 (ALLTEVETPIRNEWGCRCNDSSD; epitope peptide) [compound 321] | 1794 | 2225 | 
324 (SLCTEVGSLLTEV; epitope peptide) [compound 324] | 1772 | 1780 | 
326 (SLLTEVETPIRNEWGCRCNDSSD; epitope peptide) [compound 326] | 1749 | 2476 | 
327 (SLMTEVETPIRNEWGCRCNDSSD; epitope peptide) [compound 327] | 1729 | 2149 | 
328 (SLETEVETPIRNEWGCRCNDSSD; epitope peptide) [compound 328] | 1720 | 1963 | 
329 (SLLTEVGSCLCEC; epitope peptide) [compound 329] | 1708 | 2558 | 
330 (SLLTEVETPIRNEWGCRCNDYSD; epitope peptide) [compound 330] | 1694 |  | 2445
334 (CSLLTEVGMSLCTEV; epitope peptide) [compound 334] | 1682 |  | 2857
336 (SLLCEVGSLLTEV; epitope peptide) [compound 336] | 1674 | 2475 | 
337 (SLLTEVETPIRNEWGCRCNYSSD; epitope peptide) [compound 337] | 1666 |  | 2475
339 (MSLLTECGMSLLTEV; epitope peptide) [compound 339] | 1658 |  | 2170
341 (CSLLTEVCSLLTEC; epitope peptide) [compound 341] | 1644 | 1122 | 
342 (SLLTEVETPIRNEWGCRCNSSSD; epitope peptide) [compound 342] | 1637 |  | 2440

Substance | Signal (peptides that bind to 23K21 and 8I10) (HuM2e antibody 23K12) | Signal (peptides that show specific binding to Z3G1) [1] | Signal (peptides that bind to Z3G1) [1]
343 (MSLLTEVGMSLLTEC; epitope peptide) [compound 343] | 1630 |  | 2831
345 (CSLLTEVGSCLTEV; epitope peptide) [compound 345] | 1616 | 2703 | 
346 (SLLMEVETPIRNEWGCRCNDSSD; epitope peptide) [compound 346] | 1616 | 2477 | 
349 (SLATEVETPIRNEWGCRCNDSSD; epitope peptide) [compound 349] | 1583 | 2145 | 
351 (SLLCEVGSLLTEC; epitope peptide) [compound 351] | 1564 | 2438 | 
352 (SLQTEVETPIRNEWGCRCNDSSD; epitope peptide) [compound 352] | 1561 | 2025 | 
353 (SLLTEVGCSLLTEC; epitope peptide) [compound 353] | 1556 | 2380 | 
354 (SLLTEVGCSLLTEV; epitope peptide) [compound 354] | 1555 | 2511 | 
356 (SLLTEVETPIRNEWGCRCNDSDD; epitope peptide) [compound 356] | 1553 |  | 2181
357 (SLLTEVETPIPNEWGCRCNDSSD; epitope peptide) [compound 357] | 1548 | 2515 | 
359 (MSLLTEVGMSCLTEV; epitope peptide) [compound 359] | 1535 |  | 2793
360 (CSLLTECGCSLLTEV; epitope peptide) [compound 360] | 1534 |  | 1427
363 (MSLLTECGCSLLTEV; epitope peptide) [compound 363] | 1500 |  | 1235
364 (CSLLTEVGCSLLTEV; epitope peptide) [compound 364] | 1499 |  | 2503
365 (CSLLTEVCMSLLTEC; epitope peptide) [compound 365] | 1498 |  | 1891
366 (SLLTEVETPIRNEWWCRCNDSSD; epitope peptide) [compound 366] | 1498 | 2406 | 
368 (SLLTEVETPIRNEWG; epitope peptide) [compound 368] | 1486 |  | 2429
370 (SLLTEVETPIRNEWGERCNDSSD; epitope peptide) [compound 370] | 1474 | 2286 | 
371 (MSLCTEVGMSLLTEV; epitope peptide) [compound 371] | 1468 |  | 2691
372 (CSLLTEVGMSCLTEV; epitope peptide) [compound 372] | 1466 |  | 2554

Substance | Signal (peptides that bind to 23K21 and 8I10) (HuM2e antibody 23K12) | Signal (peptides that show specific binding to Z3G1) [1] | Signal (peptides that bind to Z3G1) [1]
373 (CSLLTECGMSLLTEV; epitope peptide) [compound 373] | 1458 |  | 1235
375 (SLLTEVETPIRNEWGCRVNDSSD; epitope peptide) [compound 375] | 1446 | 2316 | 
377 (SLKTEVETPIRNEWGCRCNDSSD; epitope peptide) [compound 377] | 1434 | 1453 | 
379 (SLCTEVGCSCLCEV; epitope peptide) [compound 379] | 1421 | 1500 | 
380 (SLLTEVETPIRNTWGCRCNDSSD; epitope peptide) [compound 380] | 1409 | 2314 | 
381 (SLLQEVETPIRNEWGCRCNDSSD; epitope peptide) [compound 381] | 1399 | 2432 | 
383 (CSLLTEVGCSLLTEC; epitope peptide) [compound 383] | 1380 |  | 2486
384 (SLLTEVETPIRNEYGCRCNDSSD; epitope peptide) [compound 384] | 1377 | 2426 | 
385 (CSLLTEVGCLCTCV; epitope peptide) [compound 385] | 1375 | 2474 | 
386 (SLLTEVETPIRNEVGCRCNDSSD; epitope peptide) [compound 386] | 1371 | 2411 | 
387 (SLLTEVETPIRTEWGCRCNDSSD; epitope peptide) [compound 387] | 1365 | 2360 | 
388 (CSLLTEVGCLLTEV; epitope peptide) [compound 388] | 1351 | 2427 | 
389 (SLLTEVETPYRNEWGCRCNDSSD; epitope peptide) [compound 389] | 1350 | 2303 | 
390 (CLLTEVGSLLTEV; epitope peptide) [compound 390] | 1349 | 2494 | 
393 (SLLTEVETPIRNEWGCRCNLSSD; epitope peptide) [compound 393] | 1334 |  | 2634
394 (SLLTEVETPIRNEWGCRCNMSSD; epitope peptide) [compound 394] | 1133 |  | 2574
395 (SLLTEVETPIRNEWGCRCNNSSD; epitope peptide) [compound 395] | 926 |  | 2502
396 (SLLTEVETPIRNEWGCRCNPSSD; epitope peptide) [compound 396] | 849 |  | 2445
